Experiment [1] concerns Respiratory syncytial virus (RSV) strain A2. As to the kind of experiment: Hep-2 RSV2 384-well assay (EC50-HEP2-384). Format: cell-based. The settings on record: human respiratory syncytial virus, HEp-2, 96 h, HEp-2 cells, RSV A2, MOI=4, 4 days, Table 3.
Experiment [2] concerns SARS-CoV-2. As to the kind of experiment: SARS-CoV-2 antiviral assay (A549-hACE2, Nano luciferase). The class given is cell-based. Particulars: A549-hACE2 cells, SARS-CoV2-Nano, MOI 0.025, 48 h, Table 4, read-out: EC50 SARS CoV2.
Where [3] appears, read: Severe acute respiratory syndrome coronavirus 2, 48 h.

Read-outs that look alike come from different tables or passages of the source.

As for `CCC(CC)COC(=O)[C@H](C)NP(=O)(OC[C@H]1O[C@@](C#N)(c2ccc3c(N)ncnn23)[C@H](O)[C@@H]1O)Oc1ccccn1` (single isomer, unassigned) [Example 175a], the EC50 (as a rule, the concentration that produces a half-maximal response) was determined as 5 µM in experiment [1] and 3.36 µM in experiment [2].
Take `C[C@H](NP(=O)(OC[C@H]1O[C@@](C#N)(c2ccc3c(N)ncnn23)[C@H](O)[C@@H]1O)Oc1ccc(C(C)(C)C)cc1)C(=O)OC1CCC1` (stereo partly drawn) [Example 31, Cyclobutyl ((((2R,3S,4R,5R)-5-(4-aminopyrrolo[2,1-f][1,2,4]triazin-7-yl)-5-cyano-3,4-dihydroxytetrahydrofuran-2-yl)methoxy)(4-(tert-butyl)phenoxy)phosphoryl)-L-alaninate]: the EC50 in experiment [1] was 0.0532 µM; in experiment [2] (setting [3]), 0.25 µM.
For `CC(=O)O[C@H]1[C@@H](OC(C)=O)[C@](C#N)(c2ccc3c(N)ncnn23)O[C@@H]1CO[P@@](=O)(N[C@@H](C)C(=O)O[C@H]1CCOC1)Oc1ccc(C(C)(C)C)cc1` [Example 37, (2R,3R,4R,5R)-2-(4-aminopyrrolo[2,1-f][1,2,4]triazin-7-yl)-5-((((4-(tert-butyl)phenoxy)(((S)-1-oxo-1-(((S)-tetrahydrofuran-3-yl)oxy)propan-2-yl)amino)phosphoryl)oxy)methyl)-2-cyanotetrahydrofuran-3,4-diyl Diacetate], the EC50 in experiment [1] turned out to be 0.187 µM; in experiment [2] (setting [3]), 0.282 µM.
On the same counts, the results for `CCOC(=O)[C@H](C)NP(=O)(OC[C@H]1O[C@@](C#N)(c2ccc3c(N)ncnn23)[C@H](OC(=O)C(C)C)[C@@H]1OC(=O)C(C)C)Oc1ccc(C23CC(C2)C3)cc1` (stereo partly drawn) [Example 43, (2R,3R,4R,5R)-2-(4-aminopyrrolo[2,1-f][1,2,4]triazin-7-yl)-5-((((4-(bicyclo[1.1.1]pentan-1-yl)phenoxy)(((S)-1-ethoxy-1-oxopropan-2-yl)amino)phosphoryl)oxy)methyl)-2-cyanotetrahydrofuran-3,4-diyl bis(2-methylpropanoate)] are 0.0628 µM and 0.168 µM.
The like results for `CC(C)C(=O)O[C@H]1[C@@H](OC(=O)C(C)C)[C@](C#N)(c2ccc3c(N)ncnn23)O[C@@H]1COP(=O)(N[C@@H](C)C(=O)OC1CC(C)(C)C1)Oc1ccc(C(C)(C)C)cc1` (stereo partly drawn) [Example 94, (2R,3R,4R,5R)-2-(4-aminopyrrolo[2,1-f][1,2,4]triazin-7-yl)-5-((((4-(tert-butyl)phenoxy)(((S)-1-(3,3-dimethylcyclobutoxy)-1-oxopropan-2-yl)amino)phosphoryl)oxy)methyl)-2-cyanotetrahydrofuran-3,4-diyl bis(2-methylpropanoate)] were, in that order, 0.0846 µM and 0.37 µM.
The like results for `CCC(=O)O[C@H]1[C@@H](OC(=O)CC)[C@](C#N)(c2ccc3c(N)ncnn23)O[C@@H]1COP(=O)(N[C@@H](C)C(=O)OC1CC(C)(C)C1)Oc1ccc(C(C)(C)C)cc1` (stereo partly drawn) [Example 95, (2R,3R,4R,5R)-2-(4-aminopyrrolo[2,1-f][1,2,4]triazin-7-yl)-5-((((4-(tert-butyl)phenoxy)(((S)-1-(3,3-dimethylcyclobutoxy)-1-oxopropan-2-yl)amino)phosphoryl)oxy)methyl)-2-cyanotetrahydrofuran-3,4-diyl Dipropionate] were, in that order, 0.0617 µM and 0.264 µM.
For the compound `CC(=O)O[C@H]1[C@@H](OC(C)=O)[C@](C#N)(c2ccc3c(N)ncnn23)O[C@@H]1COP(=O)(N[C@@H](C)C(=O)OC1CC2(CCCC2)C1)Oc1ccc(C(C)(C)C)cc1` (stereo partly drawn) [Example 98a, (2R,3R,4R,5R)-2-(4-aminopyrrolo[2,1-f][1,2,4]triazin-7-yl)-5-((((4-(tert-butyl)phenoxy)(((S)-1-oxo-1-(spiro[3.4]octan-2-yloxy)propan-2-yl)amino)phosphoryl)oxy)methyl)-2-cyanotetrahydrofuran-3,4-diyl Diacetate], the EC50 in experiment [1] was 0.0621 µM; in experiment [2] (setting [3]), 0.176 µM.
As for `COCCOC(=O)[C@H](C)NP(=O)(OC[C@H]1O[C@@](C#N)(c2ccc3c(N)ncnn23)[C@H](OC(=O)C(C)C)[C@@H]1OC(=O)C(C)C)Oc1ccc(C(C)(C)C)cc1` (stereo partly drawn) [Example 151, (2R,3R,4R,5R)-2-(4-aminopyrrolo[2,1-f][1,2,4]triazin-7-yl)-5-((((4-(tert-butyl)phenoxy)(((S)-1-(2-methoxyethoxy)-1-oxopropan-2-yl)amino)phosphoryl)oxy)methyl)-2-cyanotetrahydrofuran-3,4-diyl bis(2-methylpropanoate)], it took 0.0556 µM to reach a half-maximal effect in experiment [1] (EC50).
Still for that read-out and setting: then `CCC(CC)COC(=O)[C@H](C)NP(=O)(OC[C@H]1O[C@@](C#N)(c2ccc3c(N)ncnn23)[C@H](OC(C)=O)[C@@H]1OC(C)=O)Oc1ccc(OC2CCCCC2)cc1` (stereo partly drawn) [Example 152, (2R,3R,4R,5R)-2-(4-aminopyrrolo[2,1-f][1,2,4]triazin-7-yl)-2-cyano-5-((((4-(cyclohexyloxy)phenoxy)(((S)-1-(2-ethylbutoxy)-1-oxopropan-2-yl)amino)phosphoryl)oxy)methyl)tetrahydrofuran-3,4-diyl Diacetate], with 0.211 µM; and `CCC(CC)COC(=O)[C@H](C)NP(=O)(OC[C@H]1O[C@@](C#N)(c2ccc3c(N)ncnn23)[C@H](OC(=O)C(C)C)[C@@H]1OC(=O)C(C)C)Oc1ccc(OC2CCCCC2)cc1` (stereo partly drawn) [Example 153, (2R,3R,4R,5R)-2-(4-aminopyrrolo[2,1-f][1,2,4]triazin-7-yl)-2-cyano-5-((((4-(cyclohexyloxy)phenoxy)(((S)-1-(2-ethylbutoxy)-1-oxopropan-2-yl)amino)phosphoryl)oxy)methyl)tetrahydrofuran-3,4-diyl bis(2-methylpropanoate)], with 0.27 µM; and `COC(C)COC(=O)[C@H](C)NP(=O)(OC[C@H]1O[C@@](C#N)(c2ccc3c(N)ncnn23)[C@H](O)[C@@H]1O)Oc1ccc(C(C)(C)C)cc1` (stereo partly drawn) [Example 155, 2-methoxypropyl ((((2R,3S,4R,5R)-5-(4-aminopyrrolo[2,1-f][1,2,4]triazin-7-yl)-5-cyano-3,4-dihydroxytetrahydrofuran-2-yl)methoxy)(4-(tert-butyl)phenoxy)phosphoryl)-L-alaninate], with 0.683 µM.
Still for that read-out and setting: then `CCOC(=O)[C@H](C)NP(=O)(OC[C@H]1O[C@@](C#N)(c2ccc3c(N)ncnn23)[C@H](OC(C)=O)[C@@H]1OC(C)=O)Oc1ccc(C(C)(C)C)cc1` (stereo partly drawn) [Example 157, (2R,3R,4R,5R)-2-(4-aminopyrrolo[2,1-f][1,2,4]triazin-7-yl)-5-((((4-(tert-butyl)phenoxy)(((S)-1-ethoxy-1-oxopropan-2-yl)amino)phosphoryl)oxy)methyl)-2-cyanotetrahydrofuran-3,4-diyl Diacetate], with 0.0795 µM; and `CCOC(=O)[C@H](C)NP(=O)(OC[C@H]1O[C@@](C#N)(c2ccc3c(N)ncnn23)[C@H](OC(=O)CC(C)C)[C@@H]1OC(=O)CC(C)C)Oc1ccc(C(C)(C)C)cc1` (stereo partly drawn) [Example 158, (2R,3R,4R,5R)-2-(4-aminopyrrolo[2,1-f][1,2,4]triazin-7-yl)-5-((((4-(tert-butyl)phenoxy)(((S)-1-ethoxy-1-oxopropan-2-yl)amino)phosphoryl)oxy)methyl)-2-cyanotetrahydrofuran-3,4-diyl bis(3-methylbutanoate)], with 0.272 µM; and `CCC(C)(C)CCOC(=O)[C@H](C)NP(=O)(OC[C@H]1O[C@@](C#N)(c2ccc3c(N)ncnn23)[C@H](OC(=O)C(C)C)[C@@H]1OC(=O)C(C)C)Oc1ccc(C(C)(C)C)cc1` (stereo partly drawn) [Example 160, (2R,3R,4R,5R)-2-(4-aminopyrrolo[2,1-f][1,2,4]triazin-7-yl)-5-((((4-(tert-butyl)phenoxy)(((S)-1-((3,3-dimethylpentyl)oxy)-1-oxopropan-2-yl)amino)phosphoryl)oxy)methyl)-2-cyanotetrahydrofuran-3,4-diyl bis(2-methylpropanoate)], with 0.219 µM.
`COC(C)COC(=O)[C@H](C)NP(=O)(OC[C@H]1O[C@@](C#N)(c2ccc3c(N)ncnn23)[C@H](OC(C)=O)[C@@H]1OC(C)=O)Oc1ccc(C(C)(C)C)cc1` (stereo partly drawn) [Example 161, (2R,3R,4R,5R)-2-(4-aminopyrrolo[2,1-f][1,2,4]triazin-7-yl)-5-((((4-(tert-butyl)phenoxy)(((2S)-1-(2-methoxypropoxy)-1-oxopropan-2-yl)amino)phosphoryl)oxy)methyl)-2-cyanotetrahydrofuran-3,4-diyl Diacetate]: a half-maximal effect in experiment [1] (EC50) was put at 0.113 µM.
Same read-out and setting: then `COC(C)COC(=O)[C@H](C)NP(=O)(OC[C@H]1O[C@@](C#N)(c2ccc3c(N)ncnn23)[C@H](OC(=O)C(C)C)[C@@H]1OC(=O)C(C)C)Oc1ccc(C(C)(C)C)cc1` (stereo partly drawn) [Example 162, (2R,3R,4R,5R)-2-(4-aminopyrrolo[2,1-f][1,2,4]triazin-7-yl)-5-((((4-(tert-butyl)phenoxy)(((2S)-1-(2-methoxypropoxy)-1-oxopropan-2-yl)amino)phosphoryl)oxy)methyl)-2-cyanotetrahydrofuran-3,4-diyl bis(2-methylpropanoate)], with 0.0725 µM; and `CC(C)C(=O)O[C@H]1[C@@H](OC(=O)C(C)C)[C@](C#N)(c2ccc3c(N)ncnn23)O[C@@H]1COP(=O)(N[C@@H](C)C(=O)OCC1CCCCC1)Oc1ccc(C(C)(C)C)cc1` (stereo partly drawn) [Example 164, (2R,3R,4R,5R)-2-(4-aminopyrrolo[2,1-f][1,2,4]triazin-7-yl)-5-((((4-(tert-butyl)phenoxy)(((S)-1-(cyclohexylmethoxy)-1-oxopropan-2-yl)amino)phosphoryl)oxy)methyl)-2-cyanotetrahydrofuran-3,4-diyl bis(2-methylpropanoate)], with 0.107 µM; and `CC(C)C(=O)O[C@H]1[C@@H](OC(=O)C(C)C)[C@](C#N)(c2ccc3c(N)ncnn23)O[C@@H]1COP(=O)(N[C@@H](C)CC(=O)OC1CCC1)Oc1ccc(C(C)(C)C)cc1` (stereo partly drawn) [Example 167, (2R,3R,4R,5R)-2-(4-aminopyrrolo[2,1-f][1,2,4]triazin-7-yl)-5-((((4-(tert-butyl)phenoxy)(((S)-4-cyclobutoxy-4-oxobutan-2-yl)amino)phosphoryl)oxy)methyl)-2-cyanotetrahydrofuran-3,4-diyl bis(2-methylpropanoate)], with 5 µM.

(Values after patent US12404289B2 (Gilead Sciences, Inc., priority 2020, dated 2025).)
